Source: US20240277658A1, “NLRP3 ACTIVATORS FOR USE IN THE TREATMENT OF INFECTIOUS DISEASES OR CANCER BY ACTIVATING NLRP3 INFLAMMASOME” (ALBERT-LUDWIGS-UNIVERSITÄT FREIBURG, priority 2020, published 2024)
Values joined by “and” are separate entries in the source; they are usually repeats but may differ in a detail not shown here. Identical values can stand only once. Like-named read-outs stand apart in the source and are kept apart here.

Tests used:
NLRP3 inflammasome = target: T1, NLRP3 inflammasome (Mus musculus, UniProt Q8R4B8); assay: IL-1β release from LPS-primed BMDCs (ELISA) as readout of NLRP3 inflammasome activation; type: cell-based; conditions: compound 50 μM; for Average (% positive control): IL-1β release, positive control nigericin 5 μM; for Average IL-1β / IL-1β: LPS-primed BMDCs; for IL-1β: single replicates
T1 construct: endogenous in cells; host or cells: primary mouse bone marrow-derived dendritic cells (BMDCs), LPS-primed
T1 sequence (Q8R4B8 whole entry): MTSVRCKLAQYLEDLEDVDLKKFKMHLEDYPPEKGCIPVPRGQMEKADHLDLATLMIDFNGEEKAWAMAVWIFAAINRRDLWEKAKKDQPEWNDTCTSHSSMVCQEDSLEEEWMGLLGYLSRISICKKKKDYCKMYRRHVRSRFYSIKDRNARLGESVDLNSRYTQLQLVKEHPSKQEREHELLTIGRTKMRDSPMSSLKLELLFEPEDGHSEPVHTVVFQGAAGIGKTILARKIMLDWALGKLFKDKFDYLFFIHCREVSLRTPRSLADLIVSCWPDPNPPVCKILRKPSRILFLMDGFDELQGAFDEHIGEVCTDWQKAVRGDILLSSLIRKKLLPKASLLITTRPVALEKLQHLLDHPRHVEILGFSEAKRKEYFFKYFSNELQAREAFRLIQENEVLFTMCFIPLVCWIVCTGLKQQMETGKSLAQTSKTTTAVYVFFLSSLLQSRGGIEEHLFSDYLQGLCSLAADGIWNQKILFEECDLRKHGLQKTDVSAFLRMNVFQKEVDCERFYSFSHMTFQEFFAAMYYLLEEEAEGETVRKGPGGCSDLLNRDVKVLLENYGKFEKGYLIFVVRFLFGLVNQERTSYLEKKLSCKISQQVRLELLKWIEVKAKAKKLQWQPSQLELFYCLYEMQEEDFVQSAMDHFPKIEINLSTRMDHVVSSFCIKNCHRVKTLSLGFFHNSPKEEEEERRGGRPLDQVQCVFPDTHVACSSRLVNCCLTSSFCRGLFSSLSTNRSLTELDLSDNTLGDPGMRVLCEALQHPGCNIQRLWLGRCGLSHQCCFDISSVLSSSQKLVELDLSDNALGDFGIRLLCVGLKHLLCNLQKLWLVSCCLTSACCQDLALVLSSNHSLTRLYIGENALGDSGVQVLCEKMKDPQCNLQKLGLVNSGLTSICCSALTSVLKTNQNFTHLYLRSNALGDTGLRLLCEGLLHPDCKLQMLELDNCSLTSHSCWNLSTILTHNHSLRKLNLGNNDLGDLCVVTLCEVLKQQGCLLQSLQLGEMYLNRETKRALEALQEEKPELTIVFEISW
Procedure, shortened: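 NLRP3 inflammasome activation was read out as IL-1β released into the supernatant, measured by ELISA. Murine BMDCs were primed with LPS (50 ng ml^−1, 3 hours), then incubated with compounds for 3 hours, with each condition run in three technical replicates. Nigericin at 5 μM acted as the positive control activator, and IL-1β release was also expressed as a percentage of that control.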

BMDCs = assay: LDH release (lytic cell death, pyroptosis) from LPS-primed BMDCs; type: cell-based, mouse; conditions: compound 50 μM; for Average (% positive control): LDH release, positive control nigericin 5 μM; for cytotoxicity at 50 µM: Mus musculus, BMDC, LPS-primed BMDCs
Procedure, shortened: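 Mouse BMDCs (7-9 days differentiated, GM-CSF) primed with 50 ng ml^−1 E. coli K12 LPS for 3 hours, then exposed 3 hours to compounds (50 μM unless indicated) or activators (nigericin 5 μM; R837, CL097 100 μM). Lytic death measured as LDH release by colorimetric assay, triplicate wells.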

[1] = read-out: Average LDH release (% of max.)
[2] = single replicates, read-out: LDH release (% of max.)

| SMILES | Average (% positive control) (NLRP3 inflammasome) | Average IL-1β (NLRP3 inflammasome) [ng/mL] | IL-1β (NLRP3 inflammasome) | Average (% positive control) (BMDCs) | cytotoxicity at 50 µM (BMDCs; [1]) [%] | cytotoxicity at 50 µM (BMDCs; [2]) [%] |
| --- | --- | --- | --- | --- | --- | --- |
| COc1ccc(NC(=O)NCc2nc(Cc3ccccc3)no2)cc1 [L01.125, 3-[(3-benzyl-1,2,4-oxadiazol-5-yl)methyl]-1-(4-methoxyphenyl)-urea] | 0.988 | 0.071 | 0.080 ng/mL and 0.071 ng/mL and 0.061 ng/mL | 9.397 | 6.87 | 7.72 |
| Cc1ccc(-c2noc(CN3C(=O)CN(c4ccccc4)C3=O)n2)cc1 [L01.127, 3-{[3-(4-methylphenyl)-1,2,4-oxadiazol-5-yl]-methyl}-1-phenylimid-azolidine-2,4-dione] | 6.538 | 0.469 | 0.490 ng/mL and 0.475 ng/mL and 0.441 ng/mL | 14.301 | 10.5 | 11 |
| CN1C(=O)c2ccc(NC(=O)Nc3ccccc3)cc2C1=O [L01.128, 3-(2-methyl-1,3-dioxo-2,3-dihydro-1H-iso-indol-5-yl)-1-phenyl-urea] | 5.819 | 0.417 | 0.456 ng/mL and 0.394 ng/mL and 0.402 ng/mL | 16.086 | 11.8 | 12.1 |

Continued, in another order:

| Average (% positive control) (NLRP3 inflammasome) | Average IL-1β (NLRP3 inflammasome) [ng/mL] | SMILES | IL-1β (NLRP3 inflammasome) | Average (% positive control) (BMDCs) | cytotoxicity at 50 µM (BMDCs; [1]) [%] | cytotoxicity at 50 µM (BMDCs; [2]) [%] |
| --- | --- | --- | --- | --- | --- | --- |
| 4.350 | 0.312 | Cc1ccc(N2C(=O)N(Cc3nc(-c4ccc(F)cc4)no3)C(=O)C2C)cc1 (stereo not drawn) [L01.130, 3-{[3-(4-fluorophenyl)-1,2,4-oxadiazol-5-yl]-methyl}-5-methyl-1-(4-methylphenyl)imidazol-idine-2,4-dione] | 0.404 ng/mL and 0.317 ng/mL and 0.215 ng/mL | 11.646 | 8.52 | 9.39 |
| 0.920 | 0.066 | CNC(=O)NCc1cccc(NC(=O)Nc2ccccc2)c1 [L01.132, 3-(3-{[(methylcarbamo-yl)amino]methyl}phen-yl)-1-phenylurea] | 0.062 ng/mL and 0.066 ng/mL and 0.069 ng/mL | 8.791 | 6.43 | 6.46 |
